US4717722A, “Substituted 1-oxa-dethiacephalosporins as anti-inflammatory and antidegenerative agents” (Merck & Co., Inc., priority 1984, dated 1988)

The compounds below were run against T1, Human Polymorphonuclear Leukocyte Elastase (Homo sapiens, UniProt P08246) (assay: Inhibition of human polymorphonuclear leukocyte elastase via hydrolysis of Boc-AAPAN). Settings: effective dosage for 50% inhibition of the enzyme activity 2 minutes after zero time; crude PMN extract, 0.2 mM Boc-AAPAN, pH 7.5; read-out: ED50 (the source's name) (converted).
T1 construct: Crude extract of human polymorphonuclear leukocytes (PMN) containing elastase activity; endogenous in cells; host or cells: human polymorphonuclear leukocytes (PMN), crude extract
T1 sequence (P08246 30-247 limits assumed): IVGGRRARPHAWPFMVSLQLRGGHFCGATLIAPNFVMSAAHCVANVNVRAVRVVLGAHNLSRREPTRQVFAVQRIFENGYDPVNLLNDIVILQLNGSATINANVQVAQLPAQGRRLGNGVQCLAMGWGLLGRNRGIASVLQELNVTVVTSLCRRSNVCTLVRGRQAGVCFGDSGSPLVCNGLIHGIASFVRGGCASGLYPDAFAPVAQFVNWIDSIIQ
Type: biochemical
Description: Enzyme Assays for the Inhibition of Human Polymorphonuclear Leukocyte Elastase Via Hydrolysis of N-t-Boc-alanyl-alanyl-prolylalanine-p-nitroanilide Reagents
0.05 M TES (N-tris[hydroxymethyl]methyl-2-amino-ethanesulfonic acid) Buffer, pH 7.5.
0.2 mM N-t-Boc-alanyl-alanyl-prolyl-alanine-p-nitroanilide (Boc-AAPAN).
To prepare substrate, the solid (m.w. 550) was first dissolved in 10.0 ml DMSO. Buffer at pH 7.5 was then added to a final volume of 100 ml.
Crude extract of human polymorphonuclear leukocytes (PMN) containing elastase activity.
Inhibitors (cephalosporin sulfone esters) to be tested dissolved in DMSO just before use.
To 1.0 ml of 0.2 mM Boc-AAPAN in a cuvette, 0.01-0.1 ml of DMSO with or without inhibitor was added. After mixing, a measurement was taken at 410 mμ to detect any spontaneous hydrolysis due to presence of test compound. 0.05 Milliliters of PMN extract was then added and the ΔOD/min at 410 mμ was measured and recorded. Beckman model 35 spectrophotometer was used.
Results were reported as ED50, i.e., effective dosage in micrograms per milliliter (μg/ml) for 50% inhibition of the enzyme activity 2 minutes after zero time.
The elastase activity in the crude PMN extract may vary from one preparation to another. A control of each new batch is run, and the volume added in the assay procedure is adjusted according to activity.

IC50 [µM]	Structure (SMILES)
≥ 36.5	COC(=O)C1=C(CSc2nnnn2C)COC2N1C(=O)C2(NC(=O)C(C(=O)OC)c1ccc(O)cc1)OC (stereo not shown)
29	COC1(NC(=O)C(C(=O)OCc2ccccc2)c2ccc(O)cc2)C(=O)N2C(C(=O)OCc3ccccc3)=C(C)COC21 (stereo not shown)
12.7	CC1=COC2C(NC(=O)c3ccccc3)C(=O)N2C1C(=O)OCc1ccccc1 (stereo not shown)
51	CC1=C(C(=O)OCc2ccccc2)N2C(=O)C(NC(=O)c3ccccc3)C2OC1 (stereo not shown) [C6 H5 CONH]
